From article PMC3873925, “Peptide-Mediated Liposomal Doxorubicin Enhances Drug Delivery Efficiency and Therapeutic Efficacy in Animal Models” (PLoS ONE, 2013)

Key:
LL/2-derived tumors = test: Syngenic animal model; assay type: in vivo, C57BL/6 mice; details: five injections
Method: C57BL/6 mice (6-week-old, NLAC) were injected s.c. in the dorsolateral flank with 2×10^6 LL/2 cells in 100 µL serum-free media. […] The dosage of SP-5-2-LD was 1 or 2 mg/kg, injected twice a week for four weeks. Mouse body weight and tumor size were measured twice a week. Tumor volumes were calculated using the equation: length × (width)^2 ×0.52 and presented as standard error of the mean. This study used humane endpoint by determining the tumor size (>10% of body weight) or mouse weight loss (>20% of body weight). Mice were observed twice a week and given soft diet. Animal care was carried out in accordance with the guidelines of Academia Sinica, Taiwan.

LL/2 cells = test: Lung metastasis animal model; assay type: in vivo; details: 2 mg/kg i.v. twice a week, eight injections (16 mg/kg total)
Method: LL/2 cells were washed twice by centrifugation in media without serum at room temperature, and re-suspended in media at 4°C prior to injection. Cell viability was determined by trypan blue exclusion, and only cell suspensions with greater than 95% viability and without cell clumping were used. Cells (1×10^5 cells/mouse) were inoculated via the lateral tail vein of 6-week-old female C57BL/6 mice. Mice were then treated with different formulations of anti-cancer drugs. The dosage was 1 or 2 mg/kg twice a week for four weeks. Mouse body weight and survival rate were measured twice a week. The endpoint was determined by the mouse weight loss (>20% of body weight) or mouse activity assessment (hunching, stationary, ruffling and poor grooming). Mice were observed every day and given soft diet. Animal care was carried out in accordance with the guidelines of Academia Sinica, Taiwan.

H460 cells [1] = test: Orthotopic lung adenocarcinoma model; assay type: in vivo, SCID mice; details: 1 mg/kg i.v. twice a week, eight injections, started five days after orthotopic injection
Method: SCID mice (4-week-old) were anesthetized with isoflourane mixed with oxygen and placed in the right lateral decubitus position. The skin overlying the left chest wall in the mid-axillary line was treated with alcohol, and the underlying chest wall and intercostal spaces were visualized. H460 cells (5×10^5; single-cell suspensions of over 90% viability as determined by trypan blue exclusion) in 50 µL serum-free media plus Matrigel Matrix (BD Biosciences) (1∶1) were injected into the left lateral thorax, at the lateral dorsal axillary line. After tumor injection, the mice were turned to the left lateral decubitus position and observed for 45 to 60 minutes until fully recovered. Mice were then treated with different formulations of anti-cancer drugs. The dosage was 1 mg/kg twice a week for four weeks. Mouse body weight and survival rate were measured twice a week. The endpoint was determined by the mouse weight loss (>20% of body weight) or mouse activity assessment (hunching, stationary, ruffling and poor grooming). Mice were observed every day and given soft diet. Animal care was carried out in accordance with the guidelines of Academia Sinica, Taiwan.

[2] = Pharmacokinetic and biodistribution studies in H460 xenograft-bearing mice; assay type: in vivo, NOD/SCID mice; details: 2 mg/kg i.v.
Method: Human cancer xenografts were established in NOD/SCID mice (NLAC). H460 cells (5×10^6) were injected subcutaneously (s.c.) into the dorsolateral flanks of 4-week-old mice. […] At selected time points, three mice in each group were anaesthetized and sacrificed with 50% CO2 containing 50% O2. Blood samples were collected through submaxillary punctures, and plasma samples were prepared. After perfusion, xenograft tumors and mouse organs were removed and homogenized. Tumor cell nuclei were isolated and nuclear doxorubicin was extracted as described previously, [32]. The total doxorubicin concentration was measured as described by Mayer et al.. Total doxorubicin was quantified using spectrofluorometry at λex 485/20 nm and λem 645/40 nm (Synergy HT Multi-Detection Microplate Reader, BioTek Instruments, Winooski, VT).
Tissue concentrations of doxorubicin were expressed as microequivalents per milliliter of plasma or per gram of tissue. A standard doxorubicin curve was prepared in control homogenates by following the above extraction procedure. Drug levels were estimated on the basis of doxorubicin fluorescent equivalents.

H460 cells [3] = test: Peptide-binding assay (cellular ELISA); assay type: cell-based, human
Method: (§1) H460 cells were seeded in 96-well ELISA plates at 1×10^4 per well. After 24-hour incubation, cells were fixed with 3.7% paraformaldehyde for 10 min at 4°C and then blocked with 1% BSA in PBS for 1 hour at room temperature. Serial diluted biotinylated peptides were incubated with cells for 1 hour at room temperature. After twice washing with PBS, cells were incubated with HRP-conjugated streptavidin (1∶5000 dilution) for 1 hour and then washed with PBS supplemented with 0.1% tween-20 for four times. Binding activity was assessed by cellular ELISA with optical density at 490 nm. For competition assay, cells were firstly incubated with unlabeled peptides at room temperature for 1 hour before incubated with 10 µg/ml biotinylated SP5-2 peptides.

H460 cells [4] = test: Peptide competition assay (cellular ELISA); assay type: cell-based, human; details: B-SP5-2 10 µg/ml, unlabeled peptide 22 to 600 µg/ml
Method: as §1

## COc1cccc2c1C(=O)c1c(O)c3c(c(O)c1C2=O)C[C@@](O)(C(=O)CO)C[C@@H]3O[C@H]1C[C@H](N)[C@H](O)[C@H](C)O1 [FD, doxorubicin]
LL/2-derived tumors; 1 mg/kg i.v. twice a week
  tumor size, fold larger than in equivalent SP5-2-LD-treated mice: 1.55 fold
LL/2-derived tumors; 2 mg/kg i.v. twice a week
  tumor size, fold larger than in equivalent SP5-2-LD-treated mice: 2.38 fold
LL/2 cells
  median overall survival: 21 days
H460 cells [1]
  mean life spans: 25 days
[2]
  AUC0-72 h Blood: 5.9 µg·h/g
  AUC0-72 h Heart: 26.3 µg·h/g
  AUC0-72 h Kidney: 87.2 µg·h/g
  AUC0-72 h Liver: 293.6 µg·h/g
  AUC0-72 h Lung: 421.2 µg·h/g
[2]; doxorubicin bound to tumor cell nuclei
  AUC0-72 h Nuclei: 5.5 µg·h/g
[2]; doxorubicin in tumor tissue
  AUC0-72 h Tumor: 8.5 µg·h/g

## TDSILRSYDGGG [MP5-2, mutant peptide, WTY motif changed to GGG]
H460 cells [3]; H460 and LL/2 cells, WTY motif changed to GGG
  binding activity: remarkable loss of binding activity

## TDSILRSYDWTY [SP5-2]
H460 cells [3]; H460 cells, biotinylated peptide
  minimum binding activity started at: 1 µg/mL
H460 cells [4]
  inhibition of Biotin-labeled SP5-2 binding to H460 cells by unlabeled peptide: competitively inhibited
